Where “and” joins values, the source holds several entries; their conditions need not be identical. Equal entries are not always repeated.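 Exposure lasted 48 hours, with cells grown in 96-well plates and compounds tested at five concentrations. Abbreviation: GI50, concentration required for 50% inhibition of growth. TGI: concentration producing complete growth inhibition.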
Assays:
Assay in all cases: NCI tumour cell line growth inhibition, 48 h
[1] = tested on: LOX IMVI melanoma
[2] = tested on: HCC-2998 colon
[3] = tested on: OVCAR-4 ovarian
[4] = tested on: MOLT-4 leukemia
[5] = tested on: MCF7 breast
[6] = tested on: UO-31 renal
[7] = tested on: NCI-H460 lung
[8] = tested on: NCI-H226 lung
[9] = tested on: SK-MEL-2 melanoma
[10] = tested on: SK-MEL-28 melanoma

Row | Compound | TGI [1] | TGI [2] | TGI [3] | TGI [4] | TGI [5] | TGI [6] | TGI [7] | TGI [8] | TGI [9] | TGI [10] | GI50 [1] | GI50 [5] | GI50 [8] | GI50 [9] | GI50 [10]
1 | CCOC(=O)c1cccc(NC(=O)CCl)c1 | 3.89 µM | 7.93 µM | 8.31 µM | 27.2 µM | 6.81 µM | 13.7 µM | 5.37 µM | 26 µM | 8.57 µM | 49.7 µM | – | – | – | – | –
2 | O=C(c1ccccc1)c1ccc2c(c1)nc1n2C(c2c(Cl)cccc2Cl)SC1 (stereo not given) | > 100 µM | > 100 µM | > 100 µM | > 100 µM | > 100 µM | > 100 µM | > 100 µM | > 100 µM | > 100 µM | > 100 µM | – | – | – | – | –
3 | COC(=O)c1c2c(cc3c1CC1(Cc4ccccc4C1=O)C3)CCC2 (stereo not given) | > 100 µM | > 100 µM | > 100 µM | 47.4 µM | > 100 µM | > 100 µM | > 100 µM | 44.2 µM | > 100 µM | > 100 µM | – | – | – | – | –
4 | Cc1nc2c(=S)[nH]ncc2[nH]1 | > 100 µM | > 100 µM | > 100 µM | – | > 100 µM | > 100 µM | – | > 100 µM | > 100 µM | > 100 µM | – | – | – | – | –
5 | COc1cc(/C=C/C(=O)OCC23CC[C@@]4(C(=O)O)CCC(C)[C@H](C)C4C2=CCC2[C@@]4(C)CC[C@H](O)C(C)(C)C4CC[C@]23C)ccc1O (stereo not given in full) | 34.2 µM | > 100 µM | 46.9 µM | 76.2 µM | 48.1 µM | – | 27.6 µM | 71.8 µM | 47.5 µM | 85.9 µM | – | – | – | – | –
6 | Cc1ccc(C)n1-c1ccccc1C1SCCCS1 | > 100 µM | > 100 µM | > 100 µM | > 100 µM | > 100 µM | > 100 µM | > 100 µM | > 100 µM | > 100 µM | > 100 µM | – | – | – | – | –
7 | C1=C\SS/C=C\SS/C=C\SS/C=C\SS/1 | > 100 µM | > 100 µM | > 100 µM | > 100 µM | > 100 µM | > 100 µM | 68.3 µM | > 100 µM | > 100 µM | > 100 µM | – | – | – | – | –
8 | COC(=O)[C@H](Cc1ccccc1)NC(=O)c1ccc(CNC(=O)/C=C/c2ccc(-c3ccccc3)cc2)cc1 | – | > 100 µM | > 100 µM | > 100 µM | > 100 µM | > 100 µM | > 100 µM | > 100 µM | > 100 µM | > 100 µM | – | – | – | – | –
9 | O=C(Cn1c(=O)oc2ccc(C(=O)c3ccc(F)cc3)cc21)c1ccc([N+](=O)[O-])cc1 | > 100 µM | 37.9 µM | > 100 µM | > 100 µM | > 100 µM | 84.4 µM | > 100 µM | > 100 µM | 86.2 µM | > 100 µM | – | – | – | – | –
10 | CC[n+]1cnc(N)c2c(-c3ccc(Cl)cc3)cn(-c3ccc(C)cc3)c21 | 25.9 µM | 14.8 µM | 15.6 µM | 20.5 µM | 3.35 µM | 21.5 µM | 35.8 µM | 28.2 µM | 36 µM | 21.2 µM | – | – | – | – | –
11 | COC(=O)N1CC2(CO)C3CC=C(C(=O)Nc4ccccc4Br)C2C1C3Br (stereo not given) | > 50 µM | > 50 µM | > 50 µM | > 50 µM | > 50 µM | > 50 µM | > 50 µM | > 50 µM | > 50 µM | > 50 µM | – | – | – | – | –
12 | CC1=NN(c2nc(N)nc(-c3ccccc3S(N)(=O)=O)n2)C(C)(C)C1 | > 100 µM | > 100 µM | > 100 µM | 79.8 µM | > 100 µM | > 100 µM | > 100 µM | > 100 µM | 57 µM | > 100 µM | – | – | – | – | –
13 | Nc1nc(Cl)cc(NCC2(O)CC(CO)C2)n1 (stereo not given) | > 100 µM | > 100 µM | > 100 µM | > 100 µM | > 100 µM | > 100 µM | > 100 µM | > 100 µM | > 100 µM | > 100 µM | – | – | – | – | –
14 | CC(C)(C)OC(=O)CN1CCNCCNCC1 | > 100 µM | – | > 100 µM | > 100 µM | > 100 µM | > 100 µM | > 100 µM | > 100 µM | > 100 µM | > 100 µM | – | – | – | – | –
15 | O=C1c2ccccc2C(=O)N1n1c(Cc2ccccc2)n[nH]c1=O | > 100 µM | > 100 µM | > 100 µM | > 100 µM | > 100 µM | > 100 µM | > 100 µM | > 100 µM | > 100 µM | > 100 µM | – | – | – | – | –
16 | O=C(O)c1ccccc1.[Ag] | > 66.6 µM | 37 µM | 29.9 µM | > 21.7 µM | 36.5 µM | 7.17 µM | 30.1 µM | > 100 µM | 30.2 µM | 32.4 µM | – | – | – | – | –
17 | C1CC2=C(C1)[Se]C(=C1Sc3nsnc3S1)[Se]2 | > 100 µM | > 100 µM | > 100 µM | > 100 µM | > 100 µM | > 100 µM | > 100 µM | > 100 µM | > 100 µM | > 100 µM | – | – | – | – | –
18 | C=CCNC(=S)Nc1sc2c(c1C(=O)OCC)CC(C)CC2 (stereo not given) | > 100 µM | 44.1 µM | > 100 µM | 80 µM | 45.4 µM | 56.3 µM | 47.7 µM | 50.7 µM | 48.4 µM | > 100 µM | – | – | – | – | –
19 | c1ccc(CNC2CC(NCc3ccccn3)CC(NCc3ccccn3)C2)nc1 (stereo not given) | 6.95 µM and 14.5 µM and 7.77 µM | 3.72 µM | 9.26 µM and 8.37 µM and 40.9 µM | 23.4 µM and 24.8 µM and 33.1 µM | 6.31 µM and 8.62 µM and 3.65 µM | 70.8 µM and > 25 µM and > 100 µM | 7.07 µM and 12 µM | 6.07 µM and 7.07 µM and 5.39 µM | 6.86 µM and 11.5 µM and 12.2 µM | 18.5 µM and 13.3 µM and 26.4 µM | 2.62 µM and 5.4 µM and 2.83 µM | 1.89 µM | 2.77 µM | 3.4 µM | 7.71 µM
20 | Cc1c2cc[nH]c(C(F)(F)F)c2cc2c1nc1ccccc12 | > 125 µM | > 125 µM | > 125 µM | > 78.9 µM | > 125 µM | > 125 µM | > 125 µM | > 125 µM | > 125 µM | > 125 µM | – | – | – | – | –

From PubChem BioAssay (NCI)
